We go through 2 compounds from paper PMC7130106 (Drug Design, Development and Therapy, 2020).

As usually defined, the IC50 is the concentration that inhibits the measured activity by half.

For one data set, the system named is L. mexicana. The settings on record: read-out: IC50 on L. mexicana; ref 28 (Berry et al); cited from earlier work.
For data set [1] the following is noted: co-administered with tenofovir, efavirenz, ritonavir and rifampin; cited from earlier work.
The subject of data set [2] is various clinical isolates of L. donovani. The settings on record: read-out: lowest IC50, L. donovani isolates obtained from Ethiopia; ref 38 (Patterson et al); cited from earlier work.
Data set [3] deals with L. donovani promastigotes. The settings on record: read-out: IC50 on L. donovani promastigotes; ref 38 (Patterson et al); cited from earlier work.
For data set [4] the following is noted: cited from earlier work.
Data set [5] deals with intracellular amastigote stages of L. donovani. The data set is described as follows: Synergy evaluation, combination index method with amphotericin B. The class given is cell-based, Leishmania donovani.
For data set [6], the system named is Leishmania donovani promastigotes. The class given is cell-based.

Entries after “also recorded” stand apart in the source; their conditions may differ.

Regarding `C[C@]1(COc2ccc(N3CCC(Oc4ccc(OC(F)(F)F)cc4)CC3)cc2)Cn2cc([N+](=O)[O-])nc2O1` [MMV688262, delamanid], the IC50 is 1780 nM with L. mexicana, 86.5 nM in data set [2] and 15 nM in data set [3]. In addition, the “interaction with anti-retroviral and anti-TB drugs” value in data set [1] is “no clinically relevant interaction”. In addition, in data set [4], the renal excretion is less than 5%. Moreover, the volume of distribution result in data set [4] (in words) is “high volume of distribution”. For the same compound, in data set [5], the “synergistic activity with amphotericin B” value was “synergistic effect; also recorded: synergistic activity”.
As for `CC(C)(C)C(O)C(Oc1ccc(-c2ccccc2)cc1)n1cncn1` (stereo not drawn) [MMV688942], in data set [6] (1 μM, 72 h, average of two independent experiments in triplicate), the “inhibition of promastigotes in primary screening” value was “considerable activity”. Also, in data set [6] (promastigotes), the “dose-dependent inhibitory effect in subsequent dose titration assay” value was “failed to demonstrate a dose-dependent inhibitory effect”.
